Data as given in patent US10294202B2, “Pyrrolidinones as herbicides” (FMC Corporation, priority 2013, dated 2019).

Experiments:
rice = assay: Test B flooded paddy test; type: in vivo, Oryza sativa; conditions: Flood, scale of 0 to 100 where 0 is no effect and 100 is complete control
In short: (§1)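 Treatment was made at the 2-leaf stage by dosing the standing floodwater, kept 3 cm above soil level for the whole test. Greenhouse exposure lasted 13 to 15 days. Response is a visual percent rating relative to controls, where a dash indicates no test result.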

corn = assay: Test A pre-/postemergence herbicide test; type: in vivo, Zea mays; conditions: Postemergence
In short: (§2)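 Directed soil spray to seeded pots (preemergence) or spray onto one- to two-leaf seedlings 2–10 cm tall (postemergence); loam/sand substrate throughout. Evaluated visually after about 10 days against untreated plants, 0 = no effect, 100 = complete control.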

kochia = assay: Test A pre-/postemergence herbicide test; type: in vivo, Kochia scoparia
In short: as §2

wheat = assay: Test A pre-/postemergence herbicide test; type: in vivo, Triticum aestivum; conditions: Postemergence
In short: as §2

galium = assay: Test A postemergence herbicide test; type: in vivo, Galium aparine
In short: (§3)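 Young potted plants in a loam–sand mix, one- to two-leaf stage and 2–10 cm tall, receive the test chemical postemergence and stay in a greenhouse for approximately 10 days. Injury is then judged by eye against untreated plants, scored 0 (none) to 100 (complete control).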

blackgrass = assay: Test A postemergence herbicide test; type: in vivo, Alopecurus myosuroides
In short: as §3

giant foxtail = assay: Test A pre-/postemergence herbicide test; type: in vivo, Setaria faberii
In short: as §2

ryegrass, Italian = assay: Test A pre-/postemergence herbicide test; type: in vivo, Lolium multiflorum
In short: as §2

ducksalad = assay: Test B flooded paddy test; type: in vivo, Heteranthera limosa; conditions: Flood, scale of 0 to 100 where 0 is no effect and 100 is complete control
In short: as §1

sedge, umbrella = assay: Test B flooded paddy test; type: in vivo, Cyperus difformis; conditions: Flood, scale of 0 to 100 where 0 is no effect and 100 is complete control
In short: as §1

ragweed = assay: Test A pre-/postemergence herbicide test; type: in vivo, Ambrosia elatior
In short: as §2

barnyardgrass [1] = assay: Test A pre-/postemergence herbicide test; type: in vivo, Echinochloa crus-galli
In short: as §2

barnyardgrass [2] = assay: Test B flooded paddy test; type: in vivo, Echinochloa crus-galli; conditions: Flood, scale of 0 to 100 where 0 is no effect and 100 is complete control
In short: as §1

pigweed = assay: Test A pre-/postemergence herbicide test; type: in vivo, Amaranthus retroflexus
In short: as §2

[3] = 125 g ai/ha, visual rating on 0 to 100 scale (0 no effect, 100 complete control), approx. 10 days
[4] = 500 g ai/ha, 0 to 100 scale (0 no effect, 100 complete control)
[5] = Postemergence, 125 g ai/ha, visual rating on 0 to 100 scale (0 no effect, 100 complete control), approx. 10 days
[6] = Postemergence, 500 g ai/ha, 0 to 100 scale (0 no effect, 100 complete control)
[7] = Preemergence, 125 g ai/ha, 0 to 100 scale where 0 is no effect and 100 is complete control
[8] = Preemergence, 500 g ai/ha, visual rating on 0 to 100 scale (0 no effect, 100 complete control)
[9] = 125 g ai/ha, 0 to 100 scale, 0 is no effect, 100 is complete control
[10] = 125 g ai/ha, visual rating, 0 to 100 scale, 0 no effect, 100 complete control, approximately 10 days, preemergence
[11] = Postemergence, 125 g ai/ha, 0 to 100 scale, 0 is no effect, 100 is complete control
[12] = preemergence, 500 g ai/ha, 0 to 100 scale, 0 is no effect and 100 is complete control

With `O=C1NCC(c2ccc(SC(F)(F)F)cc2)C1C(=O)Nc1ccccc1F` (stereo not drawn) [Compound 321] the “Plant response rating, Rice” value (rice; 500 g ai/ha) was 15, the “Plant response rating, Corn” value (corn; [3]) was 0 and the “Plant response rating, Corn” value (corn; [4]) was 0. The “Plant response rating, Kochia” value (kochia; [5]) was 0, the “Plant response rating, Kochia” value (kochia; [6]) was 0 and the “Plant response rating, Kochia” value (kochia; [7]) was 0. For the same molecule, the “Kochia plant response rating” value (kochia; [8]) was 0, the “Plant response rating, Wheat” value (wheat; [3]) was 0 and the “Plant response rating, Wheat” value (wheat; [4]) was 0. For the same molecule, the “Plant response rating, Galium” value (galium; [3]) was 0, the “Plant response rating, Galium” value (galium; [4]) was 0 and the “Plant response rating, Blackgrass” value (blackgrass; [3]) was 0. For the same molecule, the “Plant response rating, Blackgrass” value (blackgrass; [4]) was 0, the “Plant response rating, Foxtail, Giant” value (giant foxtail; [5]) was 0 and the “Plant response rating, Foxtail, Giant” value (giant foxtail; [6]) was 50. For the same molecule, the “Plant response rating, Foxtail, Giant” value (giant foxtail; [7]) was 0, the “Foxtail, Giant plant response rating” value (giant foxtail; [8]) was 50 and the “Plant response rating, Ryegrass, Italian” value (ryegrass, Italian; [5]) was 0. For the same molecule, the “Plant response rating, Ryegrass, Italian” value (ryegrass, Italian; [6]) was 0, the “Plant response rating, Ryegrass, Italian” value (ryegrass, Italian; [7]) was 0 and the “Ryegrass, Italian plant response rating” value (ryegrass, Italian; [8]) was 0. The “Plant response rating, Ducksalad” value (ducksalad; 500 g ai/ha) was 40, the “Plant response rating, Sedge, Umbrella” value (sedge, umbrella; 500 g ai/ha) was 0 and the “Plant response rating, Ragweed” value (ragweed; [5]) was 0. The “Plant response rating, Ragweed” value (ragweed; [6]) was 0, the “Plant response rating, Ragweed” value (ragweed; [7]) was 0 and the “Ragweed plant response rating” value (ragweed; [8]) was 0. The “Plant response rating, Barnyardgrass” value (barnyardgrass [1]; [5]) was 0, the “Plant response rating, Barnyardgrass” value (barnyardgrass [1]; [6]) was 50 and the “Plant response rating, Barnyardgrass” value (barnyardgrass [1]; [7]) was 0. For the same molecule, the “Barnyardgrass plant response rating” value (barnyardgrass [1]; [8]) was 30, the “Plant response rating, Barnyardgrass” value (barnyardgrass [2]; 500 g ai/ha) was 20 and the “Plant response rating, Pigweed” value (pigweed; [5]) was 0. The “Plant response rating, Pigweed” value (pigweed; [6]) was 0, the “Plant response rating, Pigweed” value (pigweed; [7]) was 0 and the “Pigweed plant response rating” value (pigweed; [8]) was 0.
`O=C1NCC(c2cccc(-n3cccn3)c2)C1C(=O)Nc1ccccc1C(F)(F)F` (stereo not drawn) [Compound 338] was tested, and the “Plant response rating, Rice” value (rice; 500 g ai/ha) was 0, the “Plant response rating, Corn” value (corn; [3]) was 0 and the “Plant response rating, Corn” value (corn; [4]) was 0. The “Plant response rating, Kochia” value (kochia; [5]) was 0, the “Plant response rating, Kochia” value (kochia; [7]) was 0 and the “Kochia plant response rating” value (kochia; [8]) was 20. The “Plant response rating, Wheat” value (wheat; [3]) was 0, the “Plant response rating, Galium” value (galium; [3]) was 0 and the “Plant response rating, Blackgrass” value (blackgrass; [3]) was 0. The “Plant response rating, Blackgrass” value (blackgrass; [4]) was 0, the “Plant response rating, Foxtail, Giant” value (giant foxtail; [5]) was 20 and the “Plant response rating, Foxtail, Giant” value (giant foxtail; [6]) was 60. For the same molecule, the “Plant response rating, Foxtail, Giant” value (giant foxtail; [7]) was 30, the “Foxtail, Giant plant response rating” value (giant foxtail; [8]) was 80 and the “Plant response rating, Ryegrass, Italian” value (ryegrass, Italian; [5]) was 0. The “Plant response rating, Ryegrass, Italian” value (ryegrass, Italian; [7]) was 0, the “Ryegrass, Italian plant response rating” value (ryegrass, Italian; [8]) was 0 and the “Plant response rating, Ducksalad” value (ducksalad; 500 g ai/ha) was 0. For the same molecule, the “Plant response rating, Sedge, Umbrella” value (sedge, umbrella; 500 g ai/ha) was 0, the “Plant response rating, Ragweed” value (ragweed; [5]) was 0 and the “Plant response rating, Ragweed” value (ragweed; [7]) was 0. The “Ragweed plant response rating” value (ragweed; [8]) was 0, the “Plant response rating, Barnyardgrass” value (barnyardgrass [1]; [5]) was 0 and the “Plant response rating, Barnyardgrass” value (barnyardgrass [1]; [6]) was 30. For the same molecule, the “Plant response rating, Barnyardgrass” value (barnyardgrass [1]; [7]) was 0, the “Barnyardgrass plant response rating” value (barnyardgrass [1]; [8]) was 20 and the “Plant response rating, Barnyardgrass” value (barnyardgrass [2]; 500 g ai/ha) was 0. For the same molecule, the “Plant response rating, Pigweed” value (pigweed; [5]) was 0, the “Plant response rating, Pigweed” value (pigweed; [7]) was 0 and the “Pigweed plant response rating” value (pigweed; [8]) was 0.
`O=C1NCC(c2cccc(S(F)(F)(F)(F)F)c2)C1C(=O)Nc1ccccc1F` (racemic) [Compound 213] was tested, and the “Plant response rating, Rice” value (rice; 1000 g ai/ha) was 0, the “Plant response rating, Corn” value (corn; [9]) was 0 and the “Corn plant response rating (0 to 100 scale, 0 is no effect, 100 is complete control)” value (corn; 500 g ai/ha) was 50. For the same molecule, the “Plant response rating, Kochia” value (kochia; [10]) was 0, the “Plant response rating, Kochia” value (kochia; [11]) was 0 and the “Kochia plant response rating (0 to 100 scale, 0 is no effect, 100 is complete control)” value (kochia; Postemergence, 500 g ai/ha) was 0. For the same molecule, the “Plant response rating, Kochia” value (kochia; [12]) was 0, the “Plant response rating, Wheat” value (wheat; [9]) was 0 and the “Wheat plant response rating (0 to 100 scale, 0 is no effect, 100 is complete control)” value (wheat; 500 g ai/ha) was 50. The “Plant response rating, Galium” value (galium; [9]) was 0, the “Galium plant response rating (0 to 100 scale, 0 is no effect, 100 is complete control)” value (galium; 500 g ai/ha) was 0 and the “Plant response rating, Blackgrass” value (blackgrass; [9]) was 50. For the same molecule, the “Blackgrass plant response rating (0 to 100 scale, 0 is no effect, 100 is complete control)” value (blackgrass; 500 g ai/ha) was 60, the “Plant response rating, Foxtail, Giant” value (giant foxtail; [10]) was 80 and the “Plant response rating, Foxtail, Giant” value (giant foxtail; [11]) was 80. For the same molecule, the “Foxtail, Giant plant response rating (0 to 100 scale, 0 is no effect, 100 is complete control)” value (giant foxtail; Postemergence, 500 g ai/ha) was 90, the “Plant response rating, Foxtail, Giant” value (giant foxtail; [12]) was 90 and the “Plant response rating, Ryegrass, Italian” value (ryegrass, Italian; [10]) was 0. The “Plant response rating, Ryegrass, Italian” value (ryegrass, Italian; [11]) was 40, the “Ryegrass, Italian plant response rating (0 to 100 scale, 0 is no effect, 100 is complete control)” value (ryegrass, Italian; Postemergence, 500 g ai/ha) was 50 and the “Plant response rating, Ryegrass, Italian” value (ryegrass, Italian; [12]) was 40. The “Plant response rating, Ducksalad” value (ducksalad; 1000 g ai/ha) was 85, the “Plant response rating, Sedge, Umbrella” value (sedge, umbrella; 1000 g ai/ha) was 0 and the “Plant response rating, Ragweed” value (ragweed; [10]) was 0. For the same molecule, the “Plant response rating, Ragweed” value (ragweed; [11]) was 0, the “Ragweed plant response rating (0 to 100 scale, 0 is no effect, 100 is complete control)” value (ragweed; Postemergence, 500 g ai/ha) was 30 and the “Plant response rating, Ragweed” value (ragweed; [12]) was 0. The “Plant response rating, Barnyardgrass” value (barnyardgrass [1]; [10]) was 50, the “Plant response rating, Barnyardgrass” value (barnyardgrass [1]; [11]) was 60 and the “Barnyardgrass plant response rating (0 to 100 scale, 0 is no effect, 100 is complete control)” value (barnyardgrass [1]; Postemergence, 500 g ai/ha) was 70. The “Plant response rating, Barnyardgrass” value (barnyardgrass [1]; [12]) was 80, the “Plant response rating, Barnyardgrass” value (barnyardgrass [2]; 1000 g ai/ha) was 60 and the “Plant response rating, Pigweed” value (pigweed; [10]) was 0. The “Plant response rating, Pigweed” value (pigweed; [11]) was 0, the “Pigweed plant response rating (0 to 100 scale, 0 is no effect, 100 is complete control)” value (pigweed; Postemergence, 500 g ai/ha) was 0 and the “Plant response rating, Pigweed” value (pigweed; [12]) was 0.
